We go through one molecule from patent publication US20250002914A1, “NUCLEIC ACID AGENTS FOR TREATMENT OF NON-SMALL-CELL LUNG CANCER” (UNIVERSITY COLLEGE DUBLIN, priority 2021, published 2025).

What all share (assay type): cell-based
Test [1] concerns Tier II genes. Kind of test: Tier II genes' expression following cisplatin treatment.
For test [2], the system named is A549 cells. Kind of test: Cisplatin dose response, A549. The protocol:
(§1) Cisplatin screen. Optimal cisplatin working concentrations were established via dose response and cell doubling time. In the dose response, 3,000 A549 and H460 cells were plated in 96-well plates and treated with a range of cisplatin concentrations. After 72 h, CellTiter-Glo 2.0 (Promega, cat. no. G9242) was added to the media (1:1), and luminescence was recorded. For the cell doubling time, 1M cells were plated in 10 cm plates. Different cisplatin concentrations were added at indicated concentrations, and living cells counted every 2-3 days up to 14 days. Cisplatin survival screen: 48M and 96M cells were plated at TO and treated with 6.5 μM and 25 μM of Cisplatin for A549 cells and 2 μM and 10 μM for H460 cells, corresponding to IC30 and IC80, respectively. Cell pellets were collected after 14 and 21 days. The death screen was carried out as follows: 144M cells were seeded and treated with cisplatin at 2 μM and 1 μM (IC20) for A549 and H460, respectively. Every 24 h, for five days, floating (dead) cells were collected and pooled together for gDNA extraction.

For test [3], the system named is H460 cells. Kind of test: Cisplatin dose response, H460. The protocol: as §1

Turning to `N.N.[Cl][Pt][Cl]` [Cisplatin, cisplatin], the “Tier II genes' expression” value in test [1] is recorded as “upregulation”. For the same molecule, in test [2], the 20% effect level (IC20) was put at 2 µM; the IC30 (as a rule, the concentration needed for an effect of 30%) is 6.5 µM; it took 25 µM to reach the 80% level (IC80). For the same molecule, in test [3], the 20% effect concentration (IC20) (as a rule, the concentration needed for an effect of 20%) came out at 1 µM; the IC30 was determined as 2 µM; the 80% effect level (IC80) was put at 10 µM.
